We go through five compounds from patent publication US20090018156A1, “Pyrrolo [2,3,B] Pyridine Derivatives Useful As RAF Kinase Inhibitors” (priority 2006, published 2009).

Each structure is given as a SMILES string. Like-named read-outs stand apart in the source and are kept apart here.

The test system of this experiment is B-Raf mediated phosphorylation of MEK1. Description: Cellular assay of B-Raf mediated phosphorylation of MEK1 in co-transfected 3T3 cells. It counts as cell-based. The following applies: Mus musculus, NIH3T3, 2 h, two hours exposure, anti-phospho-MEK1/2 immunoassay. On the procedure:
B-Raf mediated phosphorylation of MEK1 was measured in a cellular assay. Expression constructs for B-Raf and FLAG-tagged MEK1 (a B-raf substrate) were co-transfected in 3T3 cells and gene expression was induced using the GeneSwitch™ system for inducible mammalian expression (Invitrogen). Four hours following the induction of expression of B-Raf and MEK1, cells were exposed to the test compounds for two hours. The cells were then lysed, and then an immunoassay was performed using anti-phospho-MEK1/2 (Cell Signaling Technlogoies) to detect the percent inhibition of MEK1 phosphorylation.

Setting [1] is: read-out: Potency (IC50, inhibition of MEK1 phosphorylation), 3T3 cells co-transfected with B-Raf and FLAG-tagged MEK1.
Setting [2] is: 3T3 cells co-transfected with B-Raf and FLAG-tagged MEK1, read-out: Potency (IC50, inhibition of MEK1 phosphorylation).

One may read the IC50 as the concentration that gives 50% inhibition. Take `CCn1cc(-c2ccnc3[nH]ccc23)c(-c2cccc(NC(=O)NCc3ccccc3)c2)n1` [Example 9, N-{3-[1-Ethyl-4-(1H-pyrrolo[2,3-b]pyridin-4-yl)-1H-pyrazol-3-yl]phenyl}-N-(phenylmethyl)urea]: the IC50 under setting [1] was under 6 µM.
Same read-out and setting: the result for `CCn1cc(-c2ccnc3[nH]ccc23)c(-c2cccc(NC(=O)NC3CCCCC3)c2)n1` [Example 8, N-Cyclohexyl-N-{3-[1-ethyl-4-(1H-pyrrolo[2,3-b]pyridin-4-yl)-1H-pyrazol-3-yl]phenyl}urea] reads under 6 µM.
With `CCn1cc(-c2ccnc3[nH]ccc23)c(-c2cccc(NC(=O)Nc3c(F)cccc3F)c2)n1` [Example 6, N-(2,6-Difluorophenyl)-N-{3-[1-ethyl-4-(1H-pyrrolo[2,3-b]pyridin-4-yl)-1H-pyrazol-3-yl]phenyl}urea], under setting [2], the half-inhibitory concentration (IC50) is under 6 µM.
Regarding `CCn1cc(-c2ccnc3[nH]cc(Cl)c23)c(-c2cccc(NC(=O)Nc3ccccc3)c2)n1` [Example 13, N-{3-[4-(3-Chloro-1H-pyrrolo[2,3-b]pyridin-4-yl)-1-ethyl-1H-pyrazol-3-yl]phenyl}-N-phenylurea], the IC50 under setting [2] is over 6 µM.
The same measure, in the same setting: the result for `CCn1cc(-c2ccnc3[nH]cc(Br)c23)c(-c2cccc(NC(=O)Nc3ccccc3)c2)n1` [Example 14, N-{3-[4-(3-Bromo-1H-pyrrolo[2,3-b]pyridin-4-yl)-1-ethyl-1H-pyrazol-3-yl]phenyl}-N-phenylurea] reads under 6 µM.
